Assay results taken from patent US8952014B2, “Pyrimidine derivatives which are CGRP—antagonists” (Boehringer Ingelheim International GmbH, priority 2008, dated 2015).

Molecular target: T1, human CGRP receptor (Homo sapiens, UniProt O60894+Q16602)
T1 construct: SK-N-MC membranes (˜20 μg protein) are incubated for 180 minutes at ambient temperature; endogenous in cells; host or cells: SK-N-MC cells (membranes)
Test: Binding studies with SK-N-MC cells (125I-CGRP displacement from membranes)
Details: 50 pM 125I-iodotyrosyl-CGRP, 180 min, ambient temperature
Procedure: A. Binding Studies with SK-N-MC Cells (Expressing the Human CGRP Receptor)
SK-N-MC membranes (˜20 μg protein) are incubated for 180 minutes at ambient temperature with 50 pM ^125I-iodotyrosyl-Calcitonin-Gene-Related Peptide and increasing concentrations of the test substances in a total volume of 250 μl (assay buffer: 10 mM tris, 50 mM NaCl, 5 mM MgCl2, 1 mM EDTA, pH=7.4). The incubation is ended by rapid filtration through GF/B-glass fibre filters treated with polyethyleneimine (0.1%) using a cell harvester. The protein-bound radioactivity is measured using a gamma counter. Non-specific binding is defined as the bound radioactivity after the presence of 1 μM BIBN4096BS during incubation.
The concentration binding curves are analysed using computer-aided non-linear curve fitting.

T1 sequence (Q16602 23-461): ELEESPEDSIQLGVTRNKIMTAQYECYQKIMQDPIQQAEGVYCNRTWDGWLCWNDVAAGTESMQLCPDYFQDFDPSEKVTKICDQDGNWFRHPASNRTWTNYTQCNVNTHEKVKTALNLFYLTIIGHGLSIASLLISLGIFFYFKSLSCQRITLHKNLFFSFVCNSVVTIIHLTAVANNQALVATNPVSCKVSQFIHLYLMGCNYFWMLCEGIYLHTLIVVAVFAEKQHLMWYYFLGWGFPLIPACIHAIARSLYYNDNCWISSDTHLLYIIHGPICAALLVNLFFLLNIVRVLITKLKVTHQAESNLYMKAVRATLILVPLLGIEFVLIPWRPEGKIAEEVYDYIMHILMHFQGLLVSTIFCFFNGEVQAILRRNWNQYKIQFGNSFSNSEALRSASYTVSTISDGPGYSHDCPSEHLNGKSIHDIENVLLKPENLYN
T1 sequence (O60894 27-148): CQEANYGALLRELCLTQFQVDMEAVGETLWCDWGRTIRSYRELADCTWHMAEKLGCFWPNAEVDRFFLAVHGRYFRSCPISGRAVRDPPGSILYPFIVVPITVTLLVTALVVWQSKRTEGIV

Row | Ki [nM] | Compound
1 | 3 | COc1ccc2c(c1)CCN(C1CCN(c3cc(Oc4cc(C)c5[nH]c(=O)sc5c4)ncn3)CC1)C(=O)N2 [(72)]
2 | 5 | COc1ccc2c(c1)CCN(C1CCN(c3cc(Oc4cc(C)c5[nH]c(=O)oc5c4)nc(C)n3)CC1)C(=O)N2 [(22)]
3 | 8 | Cc1nc(Oc2cc(C)c3[nH]c(=O)oc3c2)cc(N2CCC3(CC2)OC(=O)Nc2ncccc23)n1 [(71)]
4 | 198 | COc1ccc2c(c1)CCN(C1CCN(c3cc(Nc4cc(C)c(O)c(C)c4)ncn3)CC1)C(=O)N2 [(17)]
5 | 2 | Cc1cc(Oc2cc(N3CCC4(CC3)OC(=O)Nc3ncccc34)ncn2)cc2[nH]c([C@@H]3CCCO3)nc12 [(54)]
6 | 81 | Cc1cc(Nc2cc(N3CCC(n4c(=O)[nH]c5ncccc54)CC3)ncn2)cc2oc(=O)n(C)c12 [(14)]
7 | 129 | COc1ccc2c(c1)CCN(C1CCN(c3cc(Oc4cc(C)nc5ccccc45)ncn3)CC1)C(=O)N2 [(31)]
8 | 194 | COc1ccc2c(c1)CCN(C1CCN(c3nc(Cl)cc(Oc4cc(C)c5[nH]c(=O)oc5c4)n3)CC1)C(=O)N2 [(46)]
9 | 10 | COCc1nc2c(C)cc(Oc3cc(N4CCC(N5CCc6cc(OC)ccc6NC5=O)CC4)ncn3)cc2[nH]1 [(38)]
10 | 29 | Cc1cc(Oc2cc(N3CCC4(CC3)OC(=O)Nc3ncccc34)nc(C(F)(F)F)n2)cc2oc(=O)[nH]c12 [(74)]
11 | 47 | COc1ccc2c(c1)CCN(C1CCN(c3cc(Oc4ccc5[nH]c(=O)oc5c4)ncn3)CC1)C(=O)N2 [(47)]
12 | 61 | COc1ccc2c(c1)CCN(C1CCN(c3cc(Nc4cc(C)c5c(c4)nc(C)n5C)ncn3)CC1)C(=O)N2 [(12)]
13 | 5 | Cc1cc(Oc2cc(N3CCC4(CC3)OC(=O)Nc3ncccc34)ncn2)cc2[nH]c([C@H]3CCCO3)nc12 [(70)]
14 | 37 | Cc1nc2cc(Nc3cc(N4CCC(n5c(=O)[nH]c6c7ccccc7ncc65)CC4)ncn3)cc(C)c2[nH]1 [(9)]
15 | 4 | Cc1cc(Oc2cc(N3CCC4(CC3)OC(=O)Nc3ncccc34)ncn2)cc2c1NC(=O)CO2 [(69)]
16 | 5 | COc1ccc2c(c1)CCN(C1CCN(c3cc(Oc4cc(C)c5nc([C@@H]6CCCO6)[nH]c5c4)ncn3)CC1)C(=O)N2 [(53)]
17 | 5 | COc1ccc2c(c1)CCN(C1CCN(c3cc(Nc4cc(C)c5[nH]c(=O)oc5c4)ncn3)CC1)C(=O)N2 [(7)]
18 | 1 | Cc1cc(Oc2cc(N3CCC4(CC3)OC(=O)Nc3ncccc34)ncn2)cc2oc(=O)[nH]c12 [(23)]
19 | 12 | COc1ccc2c(c1)CCN(C1CCN(c3cc(Nc4cc(C)c5[nH]c(C)nc5c4)ncn3)CC1)C(=O)N2 [(8)]
20 | 207 | COc1ccc2c(c1)CCN(C1CCN(c3cc(Oc4cnc5ccccc5n4)ncn3)CC1)C(=O)N2 [(27)]
21 | 2 | O=C1Nc2ncccc2C2(CCN(c3cc(Oc4cc(Cl)c5[nH]c(C6CCOCC6)nc5c4)ncn3)CC2)O1 [(62)]
22 | 3 | Cc1cc(Oc2cc(N3CCC(n4c(=O)[nH]c5ncccc54)CC3)ncn2)cc2oc(=O)[nH]c12 [(5)]
23 | 7 | COCc1nc2cc(Oc3cc(N4CCC5(CC4)OC(=O)Nc4ncccc45)ncn3)cc(C)c2[nH]1 [(39)]
24 | 2 | COc1ccc2c(c1)CCN(C1CCN(c3cc(Sc4cc(C)c5[nH]c(=O)oc5c4)ncn3)CC1)C(=O)N2 [(21)]

Row | Ki [nM] | Compound
25 | 241 | Cc1nc2cc(Nc3cc(Nc4ccc5c(c4)CC4(C5)C(=O)Nc5ncccc54)ncn3)cc(C)c2[nH]1 (centres unmarked) [(19)]
26 | 35 | COc1ccc2c(c1)CCN(C1CCN(c3cc(Oc4cc(C)c5c(c4)OCC(=O)N5)ncn3)CC1)C(=O)N2 [(57)]
27 | 8 | COc1ccc2c(c1)CCN(C1CCN(c3cc(Oc4cc(C)c5nc(CC6CC6)[nH]c5c4)ncn3)CC1)C(=O)N2 [(33)]
28 | 54 | COc1ccc2c(c1)CCN(C1CCN(c3cc(Nc4cc(C)c5[nH]ncc5c4)ncn3)CC1)C(=O)N2 [(11)]
29 | 18 | COc1ccc2c(c1)CCN(C1CCN(c3cc([S+]([O-])c4cc(C)c5[nH]c(=O)oc5c4)ncn3)CC1)C(=O)N2 (centres unmarked) [(25)]
30 | 23 | Cc1cc(Oc2cc(N3CCC4(CC3)OC(=O)Nc3ncccc34)ncc2C#N)cc2oc(=O)[nH]c12 [(75)]
31 | 81 | COc1ccc2c(c1)CCN(C1CCN(c3cc(Oc4cc(C)c5[nH]c(=O)oc5c4)nc(C4CC4)n3)CC1)C(=O)N2 [(45)]
32 | 49 | COc1ccc2c(c1)CCN(C1CCN(c3cc(Nc4cc(C)c5c(c4)oc(=O)n5C)ncn3)CC1)C(=O)N2 [(10)]
33 | 8 | COc1ccc2c(c1)CCN(C1CCN(c3cc(Oc4cc(C)c5[nH]c(=O)oc5c4)nc(OC)n3)CC1)C(=O)N2 [(40)]
34 | 2 | Cc1cc(Oc2cc(N3CCC4(CC3)OC(=O)Nc3ncccc34)ncn2)cc2nc([C@@H]3CCOC3)[nH]c12 [(59)]
35 | 3 | COc1ccc2c(c1)CCN(C1CCN(c3cc(Oc4cc(C)c5nc(C6CCOC6)[nH]c5c4)ncn3)CC1)C(=O)N2 (centres unmarked) [(73)]
36 | 29 | COc1ccc2c(c1)CCN(C1CCN(c3cc(Oc4ccc5[nH]c(C)nc5c4Cl)ncn3)CC1)C(=O)N2 [(56)]
37 | 2 | Cc1cc(Oc2cc(N3CCC4(CC3)OC(=O)Nc3ncccc34)ncn2)cc2nc([C@H]3CCOC3)[nH]c12 [(60)]
38 | 175 | Cc1ccc(Oc2cc(N3CCC(n4c(=O)[nH]c5ncccc54)CC3)ncn2)cc1C [(4)]
39 | 227 | Cc1cc(Nc2cc(Nc3ccc4c(c3)CC3(C4)C(=O)Nc4ncccc43)ncn2)cc2oc(=O)[nH]c12 (centres unmarked) [(18)]
40 | 11 | COc1ccc2c(c1)CCN(C1CCN(c3cc(Oc4cc(C(F)(F)F)c5nc(C)[nH]c5c4)ncn3)CC1)C(=O)N2 [(79)]
41 | 45 | COc1ccc2c(c1)CCN(C1CCN(c3cc(S(=O)(=O)c4cc(C)c5[nH]c(=O)oc5c4)ncn3)CC1)C(=O)N2 [(26)]
42 | 3 | COc1nc(Oc2cc(C)c3[nH]c(=O)oc3c2)cc(N2CCC3(CC2)OC(=O)Nc2ncccc23)n1 [(41)]
43 | 3 | Cc1nc(Nc2cc(C)c3[nH]c(=O)oc3c2)cc(N2CCC(n3c(=O)[nH]c4ncccc43)CC2)n1 [(24)]
44 | 20 | Cc1cc(Oc2cc(N3CCC(n4c(=O)[nH]c5ncccc54)CC3)ncn2)cc2oc(=O)n(C)c12 [(2)]
45 | 18 | Cc1nc2c(C)cc(Oc3cc(N4CCC(n5c(=O)[nH]c6ncccc65)CC4)ncn3)cc2[nH]1 [(34)]
46 | 2 | Cc1cc(Oc2cc(N3CCC4(CC3)OC(=O)Nc3ncccc34)ncn2)cc2sc(=O)[nH]c12 [(64)]
47 | 89 | COc1ccc2c(c1)CCN(C1CCN(c3cc(Oc4ccc5[nH]c(C)nc5c4)ncn3)CC1)C(=O)N2 [(55)]
48 | 4 | COc1ccc2c(c1)CCN(C1CCN(c3cc(Oc4cc(C)c5nc(CC#N)[nH]c5c4)ncn3)CC1)C(=O)N2 [(28)]

Row | Ki [nM] | Compound
49 | 23 | COc1ccc2c(c1)CCN(C1CCN(c3cc(Oc4cc(C)c5c(c4)oc(=O)n5C)ncn3)CC1)C(=O)N2 [(3)]
50 | 187 | COc1ccc2c(c1)CCN(C1CCN(c3cc(Nc4cc(C)c5oc(C)nc5c4)ncn3)CC1)C(=O)N2 [(16)]
51 | 6 | COCCc1nc2c(C)cc(Oc3cc(N4CCC5(CC4)OC(=O)Nc4ncccc45)ncn3)cc2[nH]1 [(66)]
52 | 4 | Cc1cc(Oc2cc(N3CCC4(CC3)OC(=O)Nc3ncccc34)ncn2)cc2cn[nH]c12 [(68)]
53 | 61 | COc1ccc2c(c1)CCN(C1CCN(c3cc(Oc4cc(C)nc(C)c4)ncn3)CC1)C(=O)N2 [(36)]
54 | 16 | COc1ccc2c(c1)CCN(C1CCN(c3cc(Oc4cc(C)c5nc(CC(F)(F)F)[nH]c5c4)ncn3)CC1)C(=O)N2 [(35)]
55 | 3 | COc1ccc2c(c1)CCN(C1CCN(c3cc(Oc4cc(C)c5nc(C)[nH]c5c4)ncn3)CC1)C(=O)N2 [(29)]
56 | 2 | Cc1cc(Oc2cc(N3CCC4(CC3)OC(=O)Nc3ncccc34)ncn2)cc2nc(C3CCOC3)[nH]c12 (centres unmarked) [(58)]
57 | 68 | Cc1nc2cc(Nc3cc(N4CCC(n5c(=O)[nH]c6ncccc65)CC4)ncn3)cc(C)c2[nH]1 [(13)]
58 | 481 | Cc1nc2cc(Nc3cc(N4CCC(n5c(=O)[nH]c6ncccc65)CC4)ncn3)cc(C)c2o1 [(20)]
59 | 3 | Cc1nc2cc(Oc3cc(N4CCC5(CC4)OC(=O)Nc4ncccc45)ncn3)cc(Cl)c2[nH]1 [(51)]
60 | 2 | COc1ccc2c(c1)CCN(C1CCN(c3cc(Oc4cc(C)c5[nH]c(=O)oc5c4)ncn3)CC1)C(=O)N2 [(1)]
61 | 96 | COc1ccc2c(c1)CCN(C1CCN(c3cc(Oc4ccc(NC(C)=O)c(C)c4)ncn3)CC1)C(=O)N2 [(48)]
62 | 6 | Cc1cc(Oc2cc(N3CCC(n4c(=O)[nH]c5ncccc54)CC3)ncn2)cc2[nH]c(C3CC3)nc12 [(43)]
63 | 2 | COc1ccc2c(c1)CCN(C1CCN(c3cc(Oc4cc(C)c5nc(C6CC6)[nH]c5c4)ncn3)CC1)C(=O)N2 [(42)]
64 | 6 | COc1nc2cc(Oc3cc(N4CCC5(CC4)OC(=O)Nc4ncccc45)ncn3)cc(C)c2[nH]1 [(67)]
65 | 4 | Cc1cc(Nc2cc(N3CCC(n4c(=O)[nH]c5ncccc54)CC3)ncn2)cc2oc(=O)[nH]c12 [(6)]
66 | 2 | Cc1cc(Oc2cc(N3CCC4(CC3)OC(=O)Nc3ncccc34)ncn2)cc2nc(C(F)(F)F)[nH]c12 [(63)]
67 | 1 | Cc1cc(Oc2cc(N3CCC4(CC3)OC(=O)Nc3ncccc34)ncn2)cc2[nH]c(C3CC3)nc12 [(44)]
68 | 2 | O=C1Nc2ncccc2C2(CCN(c3cc(Oc4cc(Cl)c5[nH]c(C6CCOC6)nc5c4)ncn3)CC2)O1 (centres unmarked) [(61)]
69 | 102 | COc1ccc2c(c1)CCN(C1CCN(c3cc(N(C(C)=O)c4cc(C)c5c(c4)oc(=O)n5C)ncn3)CC1)C(=O)N2 [(15)]
70 | 3 | Cc1cc(Oc2cc(N3CCC4(CC3)OC(=O)Nc3ncccc34)ncn2)cc2nc(C3CCOCC3)[nH]c12 [(65)]

Row | Compound | Ki [nM]
71 | COc1ccc2c(c1)CCN(C1CCN(c3cc(Oc4cc(C)c5[nH]c(=O)oc5c4)cc[n+]3[O-])CC1)C(=O)N2 [(80)] | 11
